pIC50: −log10 of the molar value. Blank lines part the entries; values can stand above or below the molecule they belong to.
Key:
HRP = target: T1, HRP (Armoracia rusticana, UniProt P00433); assay: ROS-Glo H2O2 assay with HRP; format: biochemical, horseradish
T1 sequence (P00433 31-353): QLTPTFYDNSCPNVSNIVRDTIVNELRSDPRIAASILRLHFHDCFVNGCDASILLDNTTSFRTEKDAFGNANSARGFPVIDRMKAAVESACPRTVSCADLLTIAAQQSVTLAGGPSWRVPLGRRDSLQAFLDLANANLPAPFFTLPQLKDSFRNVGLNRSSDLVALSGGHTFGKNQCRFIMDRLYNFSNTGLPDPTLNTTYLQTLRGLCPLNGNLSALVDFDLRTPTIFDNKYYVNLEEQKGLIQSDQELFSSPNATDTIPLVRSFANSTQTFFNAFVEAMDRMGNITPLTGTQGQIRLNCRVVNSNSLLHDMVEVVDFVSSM
Experimental: Hb (Sigma‒Aldrich, H7379), H2O2 (Sigma‒Aldrich, H1009), and Amplex Red reagents (Invitrogen, A12222) were obtained for the study. A 4 μM H2O2 solution was prepared in 50 mM sodium phosphate buffer (pH 7.2). Then, 49 μl of this mixture was mixed with 1 μl of the test compound in DMSO or distilled water. The mixture was combined with an assay mixture of Amplex Red reagent (20 mM stock to 0.1 mM) and HRP (200 U/ml stock to 0.2 U/ml) and added to the wells at 50 μl/well. After a 60-min incubation at 37 °C, resorufin production was quantified via a microplate fluorescence reader (SpectraMax iD5, Molecular Devices) at ex/em = 535/580 nm. […] For the ROS-Glo assay, the H2O2 substrate solution and ROS-Glo detection solution were prepared according to the manufacturer’s instructions. 10 μM H2O2 and drugs were prepared as in the Amplex Red assay, with HRP, Hb, CAT, or GPx added as needed. The mixture was added to the wells at 100 μl/well and incubated for 60 min at 37 °C. H2O2 substrate solution was added, and the mixture was incubated at room temperature for 30 min. After the H2O2 substrate solution was added and incubated at room temperature for 30 min, the ROS-Glo detection solution was added, and the mixture was incubated for 15 min. Luminescence was measured via iD5 microplate readers. […] The U/ml was calculated on the basis of the amount of H2O2 reduced by Hb during the reaction, using μg/ml and U/mg.
To evaluate the extent of peroxidase function facilitation by HTPEB (1 μM) and KDS12025 (1 μM) in HRP (0.2 U/ml) and Hb (10 μg/ml), we used the ROS-Glo assay over 30 and 60 min. The fold change was calculated by dividing the delta values during the 30-min reaction for the vehicle over drug conditions.

[1] = system: primary cultured hippocampal astrocytes; assay: oROS-G intracellular H2O2 imaging; format: cell-based, mouse; details: Fig. 3f
Experimental: (§1) Primary hippocampal astrocytes were obtained from postnatal day 0‒2 (P0‒2) C57BL/6 mice as previously described.[73] The hippocampal tissue was dissected free of meninges, minced, and dissociated into a single-cell suspension by trituration. The cells were grown in Dulbecco’s modified Eagle’s medium supplemented with D-glucose (4500 mg/L), L-glutamine, sodium pyruvate (110 mg/L), 10% heat-inactivated horse serum, 10% heat-inactivated fetal bovine serum, and 1000 U/ml penicillin‒streptomycin. The cells were maintained at 37 °C in a humidified atmosphere containing 5% CO2.
H2O2 specific, highly sensitive, and fast on-and-off kinetics, a genetically encoded oROS-G plasmid kindly provided by Dr. Andre Berndt. oROS-G was cloned under the GFAP104 promoter and delivered into primary cultured hippocampal astrocytes via the NeoN^TM transfection system (Invitrogen). The cells were treated with various concentrations of Aβ (1 to 10 μM) or 6-OHDA (Tocris, 2547; 10 to 50 μM) to induce aberrant H2O2. For subsequent experiments, 5 μM Aβ and 30 μM 6-OHDA were selected on the basis of initial dose‒response studies. KDS12025 (10 μM) and sodium pyruvate (1 mM) were applied as indicated in each experiment. For live-cell imaging, astrocytes were maintained in a humidified chamber at 37 °C with 5% […] during imaging to preserve physiological conditions. Changes in the fluorescence of oROS-G were recorded via an A1 Nikon confocal microscope equipped with a temperature- and humidity-controlled stage. Images were captured every 20 min for up to 40 h (20for the 6-OHDA experiments) via the NIS-Elements software (Nikon, Japan) for time-lapse imaging. The excitation and emission wavelengths for oROS-G fluorescence were set to 485 nm and 538 nm, respectively. Endpoint fluorescence measurements were also collected for KDS12025 dose-dependent experiments. To analyze the fluorescence intensity, individual regions of interest (ROIs) were manually selected for each astrocyte via NIS-Elements software (Nikon, Japan). The fluorescence intensity changes were normalized to the baseline values (ΔF/F0) to quantify the H2O2 dynamics. To determine the EC50 of KDS12025, endpoint fluorescence intensity data from oROS-G experiments were normalized to those of the Aβ+vehicle control group. The normalized data were analyzed via GraphPad Prism software to fit a four-parameter logistic curve, yielding the EC50 value for the H2O2-decomposing activity of KDS12025.

[2] = system: primary cultured hippocampal astrocytes; assay: DCFDA intracellular ROS assay; format: cell-based, mouse; details: Fig. 3d
Experimental: as §1
The intracellular ROS levels of astrocytes were determined via 2′,7′- dichlorodihydrofluorescein diacetate (DCFDA; Thermo Fisher). Primary cultured hippocampal astrocytes were seeded into black 96-well plates (Ibidi) at a density of 5 × 10⁴ cells per well. The plates were incubated with oligomerized Aβ42 in the presence of KDS12008, KDS12017, KDS12025, HTPEB (10 µM each), and sodium pyruvate (1 mM). These cells were subsequently washed with Ca^2+ and Mg^2+-containing PBS, followed by the application of 30 µM DCFDA and incubation at 37 °C for 30 min in a dark incubator. The mean fluorescence intensity of each well was measured via iD5 microplate readers at 485 nm and 530 nm. The fluorescence values were calculated by subtracting the blank readings and normalizing them to those of the control group.

[3] = DPPH radical scavenging assay; details: Fig. S1e
Experimental: In a 96-well microplate, samples (20 μl) at concentrations ranging from 0.1 to 100 μM were mixed with 80 μL of 50 mM sodium phosphate buffer (pH 7.2) and 100 μL of DPPH (1,1-diphenyl-2-picrylhydrazyl) solution (250 μM in methanol) and incubated for 30-min in the dark. Each sample was quantified using a microplate fluorescence reader (SpectraMax iD5, Molecular Devices) at absorbance (517 nm). Edaravone was used as a positive control. The radical scavenging activity was estimated using the following equation: sample absorbance / control absorbance ×100. The dose-response curve, EC50 for the DPPH, was calculated and determined by fitting data with GraphPad Prism software. The fitting method had no special handling of outliers.

EC50 of HRP for H2O2 decomposition without HTPEB (HRP; Fig. S1a): 0.062 U/ml | tau value, reaction time-response of HRP without HTPEB (HRP; Fig. S1b): 13.7 min
Molecule: HRP: horseradish peroxidase, plant-derived heme-containing peroxidase

Molecule: Aβ: oligomerized Amyloid-beta (Aβ)42 aggregates [reference compound]
oROS-G fluorescence (intracellular H2O2) ([1]; Aβ 1μM): 109.4±4.271 | oROS-G fluorescence (intracellular H2O2) ([1]; Aβ 5μM): 140.5±4.407 | oROS-G fluorescence (intracellular H2O2) ([1]; Aβ 10μM): 208.1±3.662 | ROS level (DCFDA) ([2]; Aβ 1μM): 101.9±6.217 | ROS level (DCFDA) ([2]; Aβ 5μM): 137.3±8.218 | ROS level (DCFDA) ([2]; Aβ 10μM): 155.2±9.442

pIC50 [3]: 4.78
Molecule: CC1=NN(c2ccccc2)C(=O)C1 [Edaravone]
